{
  "source": "paper PMC11462627",
  "about": "“SAL0114: a novel deuterated dextromethorphan-bupropion combination with improved antidepressant efficacy and safety profile” (Frontiers in Pharmacology, 2024)",
  "key": {"[1]": {"test_system": "C57BL/6J mice", "assay": "Ammonia-induced cough mouse model", "assay_type": "in vivo", "conditions": "oral; for cough inhibition rate: 0.5 h post-administration", "experimental": "Antitussive effects were investigated using a classical mouse cough model induced by ammonia liquor, with some modifications ([Jiang et al., 2014]; [Adejayan et al., 2019]). An ammonia-induced cough model in male C57BL/6J mice was used to evaluate the antitussive effects using a two-step approach. The initial screening phase aimed to identify the mice with consistent and pronounced cough responses. Individual mice were exposed to 0.2 mL of 13% ammonium hydroxide solution in 500 mL glass vials. A trained observer measured the latency period and recorded the number of coughs over a 3-min period post-exposure. […] Following a 24-h recovery period, 70 eligible mice were randomly allocated to seven treatment groups (n = 10 per group) for the compound evaluation phase. […] All compounds were administered orally at a volume of 10 mL/kg. At 0.5 h post-administration, each mouse was re-exposed to 0.2 mL of 13% ammonia in a 500 mL glass jar for 1 min. Subsequently, the trained observer recorded the number of coughs over a 3-min period following removal from the jar. […] All experimental procedures were conducted in strict compliance with guidelines approved by the Institutional Animal Care and Use Committee of Shenzhen Salubris Pharmaceuticals Co., Ltd., ensuring adherence to ethical standards in animal research. A P value of less than 0.05 was considered statistically significant for comparisons between groups."}, "[2]": {"assay": "Metabolic stability in liver microsomes", "assay_type": "in vitro ADME, human", "experimental": "All incubations were performed in duplicates. Verapamil was used as the positive control. After pre-warming the mixture for 5 min, reactions were initiated by the addition of NADPH (1 mM). Samples (30 μL) were taken at 0, 20, and 60 min, and the reaction was immediately terminated by adding 150 μL acetonitrile containing an analytical internal standard (IS). Samples were centrifuged at 4,000 rpm for 5 min in a centrifuge (5810R, Eppendorf, Germany), and the supernatant was analyzed by LC-MS/MS (Thermo Scientific TSQ Quantum Ultra, United States).\nThe in vivo clearance values (CLint = CLint, in vitro × (mg protein/g liver weight) × (g liver weight/kg body weight)) of humans were predicted by CLint, in vitro values using physiologically-based scaling factors, hepatic microsomal protein concentrations (48.8 mg protein/g liver), and liver weights (25.7 g/kg body weight). The in vivo hepatic clearance (CLH= (Q × CLint)/(Q + CLint)) was then calculated by using CLint and hepatic blood flow, Q (20.7 mL·min^−1·kg^−1 in humans)."}, "[3]": {"target": "T1, nAchR α3β4 (Homo sapiens, UniProt P30926+P32297)", "T1 construct": "host or cells: CHO-K1", "T1 sequence (P32297 32-505)": "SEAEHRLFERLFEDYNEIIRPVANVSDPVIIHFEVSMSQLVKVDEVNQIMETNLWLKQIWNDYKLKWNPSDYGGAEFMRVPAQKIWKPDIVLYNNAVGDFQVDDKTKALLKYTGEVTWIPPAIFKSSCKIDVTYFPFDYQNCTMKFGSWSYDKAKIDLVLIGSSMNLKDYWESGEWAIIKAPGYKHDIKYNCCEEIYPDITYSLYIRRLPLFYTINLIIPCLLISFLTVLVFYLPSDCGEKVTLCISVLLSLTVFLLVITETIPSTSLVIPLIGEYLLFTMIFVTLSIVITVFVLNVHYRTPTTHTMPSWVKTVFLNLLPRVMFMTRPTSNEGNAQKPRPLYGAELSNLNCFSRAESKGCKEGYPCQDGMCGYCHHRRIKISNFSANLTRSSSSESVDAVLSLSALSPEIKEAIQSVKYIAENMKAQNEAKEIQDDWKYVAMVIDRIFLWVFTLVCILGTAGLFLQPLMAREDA", "T1 sequence (P30926 22-498)": "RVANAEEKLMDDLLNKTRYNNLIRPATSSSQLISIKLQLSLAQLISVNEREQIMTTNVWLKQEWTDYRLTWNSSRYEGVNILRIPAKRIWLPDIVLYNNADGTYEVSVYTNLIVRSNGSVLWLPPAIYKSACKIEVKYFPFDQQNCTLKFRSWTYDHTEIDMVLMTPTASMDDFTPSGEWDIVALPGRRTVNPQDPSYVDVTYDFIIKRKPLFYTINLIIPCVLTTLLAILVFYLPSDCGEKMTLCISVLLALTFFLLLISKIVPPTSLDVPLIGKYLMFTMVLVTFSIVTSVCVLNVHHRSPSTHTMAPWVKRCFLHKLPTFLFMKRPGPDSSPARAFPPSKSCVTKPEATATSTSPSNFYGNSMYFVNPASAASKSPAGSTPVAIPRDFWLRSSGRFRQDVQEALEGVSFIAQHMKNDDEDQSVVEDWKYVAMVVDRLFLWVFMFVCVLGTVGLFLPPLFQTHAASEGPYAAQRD", "assay": "nAchR α3β4 radioligand binding (125I-epibatidine, recombinant CHO-K1 cells)", "conditions": "125I-epibatidine competition, human recombinant CHO-K1 cells, mean, n = 2; read-out: Ki, α3β4 nicotinic acetylcholine receptors", "experimental": "The experiments were carried out in the Eurofins Discovery laboratory, and the methods were referenced from previous studies with modifications ([Michelmore et al., 2002]; [Zaveri et al., 2010]). The competitive binding of the samples and ^125I-epibatidine to the nAchR α3β4 in human recombinant CHO-K1 cells was assessed using a radioligand binding method. The ability of the compound to competitively bind to nAchR α3β4 (Ki) was determined by detecting the signal value of the radioligand bound to the receptor."}, "[4]": {"assay": "Pharmacokinetics in beagle dog after oral administration", "assay_type": "in vivo", "conditions": "deDM, 14 mg/kg, mean, n=3", "source_text": "(§1) Results expressed as mean, n=3 per group"}, "[5]": {"assay": "Pharmacokinetics in male SD rat after oral administration", "assay_type": "in vivo", "conditions": "DM or deDM, male SD rat, oral, 50 mg/kg, mean, n=3", "source_text": "as §1"}, "[6]": {"test_system": "ICR mice", "assay": "Tail suspension test", "assay_type": "in vivo", "conditions": "TST, oral, 1 h after administration, deDM 10 and 18 mg/kg, BUP 50 mg/kg, deDM + BUP 10 + 50 and 18 + 50 mg/kg", "experimental": "The TST was adapted from the behavioral despair test described by Nguyen et al. ([Nguyen et al., 2017]), with some modifications. […] All compounds were administered orally via gavage at a volume of 10 mL/kg body weight, with the vehicle group receiving an equivalent volume of saline. One hour after administration, mice underwent a tail suspension test (TST). For the TST, each mouse was suspended by its tail, with adhesive tape attached 2 cm from the tail tip and secured to a metal rod. Care was taken to ensure a minimum distance of 15 cm between the suspended animal and the surrounding objects. The test was performed using the ANY-maze version 4.63 video tracking program (Stoelting Co., Wood Dale, IL, United States) for a total duration of 6 min. The initial 2 min served as an acclimatization period and were not scored. The immobility time during the subsequent 4 min was measured using the same software. Immobility was defined as mouse hanging passively and motionless. The ANY-Maze software parameters were set as follows: acclimatization period = 120 s, test duration = 240 s, minimum immobility time = 2 s, and immobility sensitivity = 75%. […]"}},
  "data": [
    {"substance": "deuterated dextromethorphan [deDM]", "values": [
      {"measurement": "cough inhibition compared with the vehicle group", "setting": "[1]; deDM 5 and 10 mg/kg, BUP 40 mg/kg, deDM + BUP 5 + 40 and 10 + 40 mg/kg", "value": "neither deDM nor BUP significantly inhibited cough"},
      {"measurement": "cough inhibition rate", "setting": "[1]; high dose 10 mg/kg", "value": 9.1, "unit": "%"},
      {"measurement": "cough inhibition rate", "setting": "[1]; low dose 5 mg/kg", "value": 8.3, "unit": "%"},
      {"measurement": "T1/2", "setting": "[2]; 1 μM, 0.5 mg/mL human liver microsomes, NADPH 1 mM, 37°C, mean, n = 2", "value": 2.265, "unit": "h"},
      {"measurement": "CLint, in vitro", "setting": "[2]; human liver microsomes, calculated from t1/2, mean, n = 2", "value": 0.768, "unit": "L/h/kg"},
      {"measurement": "CLH", "setting": "[2]; in vivo hepatic clearance predicted from CLint and hepatic blood flow 20.7 mL/min/kg, human", "value": 0.474, "unit": "L/h/kg"},
      {"measurement": "Ki", "setting": "[3]", "value": 15.8, "unit": "µM"},
      {"measurement": "AUC0-last (♀)", "setting": "[4]; female beagle dog", "value": 0.153, "unit": "µg·h/mL"},
      {"measurement": "Cmax (♀)", "setting": "[4]; female beagle dog", "value": 0.06, "unit": "µg/mL"},
      {"measurement": "AUC0-last (♂)", "setting": "[4]; male beagle dog", "value": 0.383, "unit": "µg·h/mL"},
      {"measurement": "Cmax (♂)", "setting": "[4]; male beagle dog", "value": 0.157, "unit": "µg/mL"},
      {"measurement": "AUC0-last", "setting": "[5]", "value": 0.374, "unit": "µg·h/mL"},
      {"measurement": "Cmax", "setting": "[5]", "value": 0.084, "unit": "µg/mL"},
      {"measurement": "immobilization time compared to the vehicle group", "setting": "[6]", "value": "did not significantly reduce the immobilization time"}
    ]}
  ]
}
